PubChem BioAssay AID192 (DTP/NCI, 2004)
“And” between values parts separate entries of the source, which are not always exact repeats. Equal entries are not always repeated. Toxic doses and inconclusive results are not listed. How the source made its calls: active means survival T/C of 150% or more; inactive means T/C below 125% in these data. Numbered stars: 1 amine (or outer) side, 2 acyl side, 3 side chain; on linkers, the order of the positions; unused ones are H or OH. Bridge positions count the residues as written; N and C are the ends. Square brackets hold non-standard residues; d marks the D form. Peptide text beside a SMILES is read from it. I, II: the chains in the order shown. Actinocin(1to9) = Cc1c2oc3c(C)ccc(C(=O)[*:2])c3nc-2c(C(=O)[*:1])c(N)c1=O; X1 = O=C1CC(C(=O)[*:2])N([*:1])C1; NMeV = CN[CH](C(=O)O)C(C)C; Sar = CNCC(=O)O

Tested on: BDF1 mice, B16 melanoma ip, median survival T/C
Test: NCI In Vivo Anticancer Drug Screen. Data for tumor model B16 Melanoma (intraperitoneal) in B6D2F1 (BDF1) mice
Conditions: endpoint: median survival time, higher = longer survival
Procedure, shortened: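 Tumor-bearing mice received test compound or vehicle. Survival or tumor size was then measured in both groups. The treated-group figure was divided by the control-group figure.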

[1] = dose: 12.5 mg/kg/injection, schedule: Q01DX009 (ip), vehicle: saline
[2] = dose: 25.0 mg/kg/injection, schedule: Q01DX009 (ip), vehicle: saline
[3] = dose: 50.0 mg/kg/injection, schedule: Q01DX009 (ip), vehicle: saline
[4] = dose: 100.0 mg/kg/injection, schedule: Q01DX009 (ip), vehicle: saline
[5] = dose: 100.0 mg/kg/injection, schedule: Q01DX009 (ip), vehicle: Klucel (hydroxypropylcellulose) (HPC)
[6] = dose: 200.0 mg/kg/injection, schedule: Q01DX009 (ip), vehicle: Klucel (hydroxypropylcellulose) (HPC)
[7] = dose: 400.0 mg/kg/injection, schedule: Q01DX009 (ip), vehicle: Klucel (hydroxypropylcellulose) (HPC)
[8] = dose: 6.25 mg/kg/injection, schedule: Q01DX009 (ip), vehicle: Klucel (hydroxypropylcellulose) (HPC)
[9] = dose: 12.5 mg/kg/injection, schedule: Q01DX009 (ip), vehicle: Klucel (hydroxypropylcellulose) (HPC)
[10] = dose: 25.0 mg/kg/injection, schedule: Q01DX009 (ip), vehicle: Klucel (hydroxypropylcellulose) (HPC)
[11] = dose: 50.0 mg/kg/injection, schedule: Q04DX003 (ip), vehicle: Klucel (hydroxypropylcellulose) (HPC)

Measured: T/C

C=C(C)C12CC(COC(=O)c3ccccc3)C34OC5(OC1C3C1OC1(COC(=O)CCCCCCCCCCCCCCC)C(O)C1(O)C(OC(=O)c3ccccc3)C(C)C(C(C)CCCCCCC5O)C14)O2 (stereo unspecified)
inactive: dose: 0.5 micrograms/kg/injection, schedule: Q01DX009 (ip), vehicle: saline 106 % of control | dose: 1.0 micrograms/kg/injection, schedule: Q01DX009 (ip), vehicle: saline 99 % of control | dose: 1.9 micrograms/kg/injection, schedule: Q01DX009 (ip), vehicle: saline 100 % of control | dose: 3.8 micrograms/kg/injection, schedule: Q01DX009 (ip), vehicle: saline 109 % of control | dose: 7.5 micrograms/kg/injection, schedule: Q01DX009 (ip), vehicle: saline 94 % of control | dose: 15.0 micrograms/kg/injection, schedule: Q01DX009 (ip), vehicle: saline 96 % of control | dose: 30.0 micrograms/kg/injection, schedule: Q01DX009 (ip), vehicle: saline 96 % of control

Cc1ccc(C)c(NC(=O)Nc2cccc3ccccc23)c1
inactive: dose: 9.0 mg/kg/injection, schedule: Q01DX009 (ip), vehicle: gum acacia 108 % of control | dose: 18.0 mg/kg/injection, schedule: Q01DX009 (ip), vehicle: gum acacia 98 % of control | dose: 37.0 mg/kg/injection, schedule: Q01DX009 (ip), vehicle: gum acacia 91 % of control

CC[n+]1c(C)ccc2ccccc21
inactive: dose: 25.0 mg/kg/injection, schedule: Q01DX009 (ip), vehicle: carboxymethylcellulose (CMC) 112 % of control | dose: 50.0 mg/kg/injection, schedule: Q01DX009 (ip), vehicle: carboxymethylcellulose (CMC) 96 % of control

OCCOCCOCCN1CCN(C(c2ccccc2)c2ccc(Cl)cc2)CC1 (stereo unspecified)
inactive: [1] 108 % of control | [2] 110 % of control | [3] 86 % of control | [4] 86 % of control

Cc1c2oc3c(C)ccc(C(=O)NC4C(=O)NC(C(C)C)C(=O)N5CCCC5C(=O)N(C)CC(=O)N(C)C(C(C)C)C(=O)OC4C)c3nc-2c(C(=O)NC2C(=O)NC(C(C)C)C(=O)N3CC(=O)CC3C(=O)N(C)CC(=O)N(C)C(C(C)C)C(=O)OC2C)c(N)c1=O (stereo unspecified) (I: TV[X1][Sar][NMeV] / II: TVP[Sar][NMeV]; ester I:1-I:C, II:1-II:C; linker I:N-II:N via Actinocin(1to9); configuration not given here)
inactive: dose: 6.2 micrograms/kg/injection, schedule: Q01DX009 (ip), vehicle: water 123 % of control | dose: 9.4 micrograms/kg/injection, schedule: Q04DX003 (ip), vehicle: water 106 % of control | dose: 18.7 micrograms/kg/injection, schedule: Q04DX003 (ip), vehicle: water 123 % of control | dose: 25.0 micrograms/kg/injection, schedule: Q01DX001 (ip), vehicle: water 123 % of control | dose: 50.0 micrograms/kg/injection, schedule: Q01DX001 (ip), vehicle: water 116 % of control | dose: 100.0 micrograms/kg/injection, schedule: Q01DX001 (ip), vehicle: water 106 % of control

CC[PH+](CC)CC[S-].CC[PH+](CC)CC[S-].[Au+].[Au+]
inactive: dose: 2.5 mg/kg/injection, schedule: Q01DX009 (ip), vehicle: Klucel (hydroxypropylcellulose) (HPC) 109 % of control | dose: 5.0 mg/kg/injection, schedule: Q01DX009 (ip), vehicle: Klucel (hydroxypropylcellulose) (HPC) 112 % of control | dose: 10.0 mg/kg/injection, schedule: Q01DX009 (ip), vehicle: Klucel (hydroxypropylcellulose) (HPC) 118 % of control | dose: 20.0 mg/kg/injection, schedule: Q01DX009 (ip), vehicle: Klucel (hydroxypropylcellulose) (HPC) 112 % of control | dose: 40.0 mg/kg/injection, schedule: Q01DX009 (ip), vehicle: Klucel (hydroxypropylcellulose) (HPC) 110 % of control

CCN(C(=O)Nc1ccc(OC)cc1)c1ccccc1
inactive: [5] 97 % of control | [6] 100 % of control | [7] 88 % of control

CCCC(=O)NC1=C(N2CC2)C(=O)C(NC(=O)CCC)=C(N2CC2)C1=O
inactive: dose: 1.0 mg/kg/injection, schedule: Q01DX009 (ip), vehicle: saline 86 % of control | dose: 2.0 mg/kg/injection, schedule: Q01DX009 (ip), vehicle: saline 118 % of control

O=C(O)C1CCCN1CCc1ccccc1 (stereo unspecified)
inactive: dose: 100.0 mg/kg/injection, schedule: Q04DX003 (ip), vehicle: saline 98 % of control | dose: 200.0 mg/kg/injection, schedule: Q04DX003 (ip), vehicle: saline 103 % of control | dose: 400.0 mg/kg/injection, schedule: Q04DX003 (ip), vehicle: saline 102 % of control

CCc1cc(C)cc(OC(=O)Nc2ccc(Cl)c(Cl)c2)c1
inactive: dose: 100.0 mg/kg/injection, schedule: Q01DX009 (ip), vehicle: saline with Tween-80 101 % of control | dose: 200.0 mg/kg/injection, schedule: Q01DX009 (ip), vehicle: saline with Tween-80 92 % of control | dose: 400.0 mg/kg/injection, schedule: Q01DX009 (ip), vehicle: saline with Tween-80 87 % of control

CCOc1ccc(NC(=O)Nc2cccc(Cl)c2)cc1
inactive: [5] 100 % of control | [6] 93 % of control | [7] 96 % of control

CN(C)N=Nc1ccccc1
inactive: [8] 120 % of control | [9] 112 % of control and 123 % of control | [10] 117 % of control

CC(C)N=C(N)/N=C(\N)Nc1ccc2ccc3ccccc3c2c1
inactive: [8] 112 % of control | [9] 103 % of control | [10] 87 % of control

COc1cc(N)c2c(c1N)C(=O)c1ccccc1C2=O
inactive: [11] 100 % of control | dose: 100.0 mg/kg/injection, schedule: Q04DX003 (ip), vehicle: Klucel (hydroxypropylcellulose) (HPC) 103 % of control | dose: 200.0 mg/kg/injection, schedule: Q04DX003 (ip), vehicle: Klucel (hydroxypropylcellulose) (HPC) 95 % of control

C[CH2][Pb]([CH2]C)([CH2]C)[n]1cnc2ccccc21
inactive: dose: 0.75 mg/kg/injection, schedule: Q01DX009 (ip), vehicle: Klucel (hydroxypropylcellulose) (HPC) 95 % of control | dose: 1.5 mg/kg/injection, schedule: Q01DX009 (ip), vehicle: Klucel (hydroxypropylcellulose) (HPC) 96 % of control

O=C(CC(=O)CC(O)(C(F)(F)F)C(F)(F)F)CC(O)(C(F)(F)F)C(F)(F)F
inactive: dose: 0.05 mg/kg/injection, schedule: Q01DX009 (ip), vehicle: saline 93 % of control | dose: 0.1 mg/kg/injection, schedule: Q01DX009 (ip), vehicle: saline 95 % of control | dose: 0.2 mg/kg/injection, schedule: Q01DX009 (ip), vehicle: saline 95 % of control | dose: 0.63 mg/kg/injection, schedule: Q04DX003 (ip), vehicle: saline 116 % of control | dose: 1.25 mg/kg/injection, schedule: Q04DX003 (ip), vehicle: saline 111 % of control | dose: 2.5 mg/kg/injection, schedule: Q04DX003 (ip), vehicle: saline 105 % of control | dose: 125.0 micrograms/kg/injection, schedule: Q01DX009 (ip), vehicle: saline with Tween-80 97 % of control

CC(N)Cc1cn(C)c2ccccc12 (stereo unspecified)
inactive: dose: 6.25 mg/kg/injection, schedule: Q01DX009 (ip), vehicle: saline 122 % of control | [1] 105 % of control | [2] 102 % of control | [3] 105 % of control | [4] 88 % of control

CN(C)CCN(Cc1ccccc1)c1ccccc1
inactive: dose: 25.0 mg/kg/injection, schedule: Q04DX003 (ip), vehicle: Klucel (hydroxypropylcellulose) (HPC) 95 % of control | [11] 89 % of control
